Results as given in article PMC9475553, “SHF Acts as a Novel Tumor Suppressor in Glioblastoma Multiforme by Disrupting STAT3 Dimerization” (Advanced Science, 2022).

Test system: intracranial U87 xenograft in nude mice
Test: Intracranial U87 xenograft tumor growth, bioluminescence
Type: in vivo, mouse
Conditions: female nude mice, 10 µg i.p. once every 2 days from third day after implantation; vs SC; n = 6, p < 0.01
Text: Considering that the SH2 domain predominantly represents the inhibition of SHF on STAT3 dimerization and activity, we speculated that this domain may be an optional target for GBM suppression. To this end, we analyzed the mechanical interaction of SHF and STAT3. The structures of human SHF (aa265‐421) and STAT3 (aa130‐715). both of which spanned their respective SH2 domain. were simulated by Swiss‐Model server (https://swissmodel.expasy.org/). To simulate the interaction of SHF and STAT3, Discovery studio 2018 was employed to complete protein‐protein docking using ZDOCK as an initial stage. A rigid body molecular docking algorithm utilizing a fast Fourier transform (FFT) algorithm was used to further improve performance for searching in translational space. […] Next, we determined the implication of C16 in tumor inhibition. […] A concentration of 25 uM was determined to be adequate for use in the subsequent experiments. […]
Figure 7 Peptide derived from the STAT3‐binding sites of SHF is an effective GBM suppressive strategy. […] B) IF staining determined the cell penetrability and nuclear‐localization of C16. […] The relative quantification of STAT3 dimerization was listed. […] The relative quantification of STAT3/DNMT1 interaction was listed. […] The relative quantification of STAT3/DNMT1 interaction was listed. […]

## C16: peptide spanning SHF amino acids 388–421, palmitic acid at the N-terminus, amidated C-terminus, 3× His tags added to the C-terminal (PFSSVPEIVHHYASRKLPIKGAEHMSLLYPVAIR; palmitic acid at the N-terminus; amidated C-terminus; left off: 3× His tags, C-terminal, kept)
  growth of intracranial tumors: potently inhibited the growth of intracranial tumors
